Test results: the NIST ThermoML archive (doi:10.1021/je400510j)
Where “and” joins values, the source holds several entries; their conditions need not be identical. Equal values may be shown once.

Conditions: Liquid; for vapor or sublimation pressure: Closed cell (Static) method; for mass density: 101.33 kPa, Vibrating tube method

c1ccncc1 [pyridine]
Conditions	vapor or sublimation pressure
288.15 K	1.65 kPa and 1.72 kPa
293.15 K	2.2 kPa and 2.25 kPa
298.15 K	2.83 kPa and 2.85 kPa
303.15 K	3.45 kPa

CO[PH](=O)[O-].Cn1cc[n+](C)c1 [1,3-dimethylimidazolium methyl phosphonate]
Conditions	mass density [kg/m3]
298.15 K	1230.6
299.45 K	1229.8
300.75 K	1229.3
302.15 K	1228.6
303.45 K	1227.9
304.75 K	1227.3
305.85 K	1226.6
307.15 K	1225.8
308.65 K	1224.9
310.35 K	1223.9
311.75 K	1223.1
313.05 K	1222.4
314.45 K	1221.5
315.85 K	1220.7
317.25 K	1219.9
318.75 K	1219.2

O [water]
Conditions	vapor or sublimation pressure [kPa]
283.15 K	1.27
288.15 K	1.73
293.15 K	2.33
298.15 K	3.2

c1ccsc1 [thiophene]
Conditions	vapor or sublimation pressure
288.15 K	6.78 kPa and 6.75 kPa
293.15 K	8.7 kPa and 8.74 kPa
298.15 K	10.37 kPa and 10.58 kPa
303.15 K	12.98 kPa

Cc1ccccc1 [toluene]
Conditions	vapor or sublimation pressure
288.15 K	2.42 kPa and 2.35 kPa
293.15 K	3.18 kPa and 3.05 kPa
298.15 K	3.84 kPa
303.15 K	4.73 kPa
